US9796671B2, “Aurora kinase inhibitors” (REGENTS OF THE UNIVERSITY OF MINNESOTA, priority 2012, dated 2017)

Experiments:
[1] = system: A549 cells; test: Apoptosis (Annexin V/PI staining); assay type: cell-based, human; details: A549, 5 μM, 72 hours
Description: (§1) Cells are plated in 60-mm plates and treated or not treated with Compound 1 for the indicated time. At each time point, cells are fixed in 70% ethanol and stored at −20° C. for 24 h. After staining, the cell cycle distribution or apoptosis is determined using a BD FACSCalibur Flow Cytometer (BD Biosciences, San Jose, Calif.). Aurora B inhibition leads to failure in cytokinesis and abnormal exit from mitosis, which could result in polyploidy cells, cell cycle arrest, and ultimately apoptosis. The ability to induce polyploidy cells was further examined in A549 cells treated or not treated with Compound 1. […] In addition, Compound 1 treatment for 48 hours caused an increase in the number of A549 and H520 cells occupying the G2/M phase. Moreover, exposure of these cells to Compound 1 for 72 hours induced apoptosis as measured by Annexin V/PI staining. For example, exposure to 5 μM Compound 1 induced 48% or 82% apoptosis in A549 cells and H520 cells, compared to 8% or 38% in untreated control cells, respectively.

[2] = system: H520 cells; test: Apoptosis (Annexin V/PI staining); assay type: cell-based, human; details: H520, 5 μM, 72 hours
Description: as §1

[3] = system: HCT116 cells; test: Anchorage-independent growth (soft agar colony formation); assay type: cell-based; details: 0.5 μM
Description: FIGS. 3A and 3B. Compounds 1-8 suppress the anchorage-independent growth of HCT116 cells. The asterisk indicates a significant (* p<0.05, ** p<0.01) decrease in colony formation in cells treated with each compound compared with the DMSO treated control group. Two concentrations of each compound, 0.5 μM and 5 μM were tested. […] Compounds 2 and 4 had no effect.
(§2) Tumor cells are suspended in basal medium Eagle (BME) medium and added to 0.6% agar, with different concentrations of Compound 1 in a base layer and a top layer of 0.3% agar. The cultures are maintained at 37° C. in a 5% CO2 incubator for 1 to 2 weeks and then colonies are counted under a microscope using the Image-Pro Plus software (v.4) program (Media Cybernetics, Silver Spring, Md.).

[4] = system: MRC-5 normal lung cells; test: Cytotoxicity (MTS assay); assay type: cell-based
Description: (§3) To estimate the cytotoxicity of Compound 1, cells are seeded (8×10^3 cells per well) in 96-well plates and cultured overnight. Cells are fed with fresh medium and treated with different doses of Compound 1. After culturing for various times, the cytotoxicity of Compound 1 is measured using an MTS assay kit (Promega, Madison, Wis.) according to the manufacturer's instructions.
(§4) The toxicity of Compound 1 on both MRC-5 normal lung cells and A549 lung cancer cells was then examined.

[5] = target: Akt2 (Homo sapiens, UniProt P31751); test: Akt2 in vitro kinase assay; assay type: biochemical
Chain of Akt2 (P31751 whole entry, species assumed): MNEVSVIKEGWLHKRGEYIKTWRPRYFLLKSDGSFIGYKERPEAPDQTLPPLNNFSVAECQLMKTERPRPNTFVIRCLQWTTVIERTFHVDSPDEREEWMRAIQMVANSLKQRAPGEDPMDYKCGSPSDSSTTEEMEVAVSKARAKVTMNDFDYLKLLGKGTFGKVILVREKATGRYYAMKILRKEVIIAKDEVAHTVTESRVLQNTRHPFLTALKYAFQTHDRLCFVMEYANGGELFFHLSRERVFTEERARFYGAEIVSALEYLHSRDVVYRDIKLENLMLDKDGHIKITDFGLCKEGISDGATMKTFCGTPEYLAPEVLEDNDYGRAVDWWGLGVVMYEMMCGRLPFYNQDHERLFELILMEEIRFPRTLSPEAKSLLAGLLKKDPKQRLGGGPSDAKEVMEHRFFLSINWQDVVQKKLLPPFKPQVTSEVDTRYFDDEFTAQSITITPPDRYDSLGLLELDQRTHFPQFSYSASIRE
Description: According to the kinase profiler assay results, Akt2 also might be a potential target of Compound 1. An Akt1 and Akt2 in vitro kinase assays was performed.

[6] = system: histone H3 phosphorylation on Ser10; test: Histone H3 (Ser10) phosphorylation in lung cancer cells (Western blot); assay type: cell-based; details: dose- and time-dependent
Text: Proteins are resolved by SDS-PAGE and transferred onto polyvinylidene difluoride membranes (Millipore, Mass.), which are blocked with nonfat milk and hybridized with specific primary antibodies. The protein bands are visualized using an enhanced chemiluminescence reagent (GE Healthcare, Pittsburgh, Pa.) after hybridization with a horseradish peroxidase-conjugated secondary antibody.
Phosphorylation of a highly conserved serine residue (Ser10) in histone H3 is thought to be crucial for entry into mitosis.

[7] = system: A549 lung cancer cells; test: Cytotoxicity (MTS assay); assay type: cell-based, human
Description: as §3, §4

[8] = system: HCT116 p53+/+ cells; test: Soft agar assay, p53 wildtype colon cancer cells; assay type: cell-based
Description: as §2
(§5) The effect of compound 1 in a pair of colon cancer cell lines, p53 wildtype (HCT116 p53^+/+) and p53-deficient (HCT116 p53^−/−) cells was also examined to determine whether the sensitivity of cells to compound 1 directly correlates with the status of p53 in cells.

[9] = system: H1650 cells; test: Anchorage-independent growth of human lung cancer cells; assay type: cell-based
Description: as §2
(§6) The effect of Compound 1 treatment on anchorage-independent growth of human lung cancer cells, including A549, H1650, and H520 cells was then examined. […] Compound 1 at 0.5 or 1 μM caused a decrease of more than 80% or 90% compared to control in all cell lines detected.

[10] = system: A549 cells; test: as above; assay type: cell-based
Description: as §2, §6

[11] = system: H520 cells; test: as above; assay type: cell-based
Description: as §2, §6

[12] = system: A549 cells; test: Polyploidy induction (immunofluorescence microscopy); assay type: cell-based, human; details: A549, 1 μM, 48 h
Description: A549 cells are seeded in four-chamber slides and cultured overnight. The cells are then treated with DMSO or Compound 1 (1 μM) for 48 h at 37° C. After treatment, the cells are washed with PBS and fixed with methanol for 12 hours, followed by blocking with 3% PBS for 1 hour. The cells are then incubated with α-tubulin antibodies (1:100) overnight and DNA is stained with 4′-6-diamidino-2-phenylindole (DAPI, Pierce) for 30 minutes at room temperature. The cells are evaluated by fluorescent microscopy.
as §1, with “Aurora” for “Cells are plated in 60-mm plates and treated or not treated with Compound 1 for the indicated time. At each time point, cells are fixed in 70% ethanol and stored at −20° C. for 24 h. After staining, the cell cycle distribution or apoptosis is determined using a BD FACSCalibur Flow Cytometer (BD Biosciences, San Jose, Calif.). Aurora”

[13] = system: A549 cells transfected with Aurora B shRNA; test: Anchorage-independent growth, Aurora B knockdown cells; assay type: cell-based; details: Homo sapiens
Description: as §2
The effect of knocking down Aurora B expression in A549 cancer cells on the cell's sensitivity to Compound 1 was evaluated. […] Compound 1 (0.5 μM) inhibited anchorage-independent growth of A549 cells transfected with mock shRNA by about 90%.

[14] = system: HCT116 p53−/− cells; test: Soft agar assay, p53-deficient colon cancer cells; assay type: cell-based; details: Homo sapiens, read-out: inhibition of growth in soft agar
Description: as §2, §5

[15] = concentrations greater than 10 μM

## O=C(/C=C/c1ccc2c(c1)OCO2)/C=C1/C(=O)Nc2ccccc21 [Compound 1]
[1]
  apoptosis (Annexin V/PI staining): 48%
[2]
  apoptosis (Annexin V/PI staining): 82%
[3]
  anchorage-independent growth of HCT116 cells (colony formation): best efficiency
[4]; 1 μM or less
  cytotoxic effects on MRC-5 normal lung cells: no obvious cytotoxic effects
[4]; 5 μM, 48 hours
  toxicity to MRC-5 normal cells: not
[4]; [15]
  toxicity on MRC-5 normal lung cells: substantial toxicity
[5]; 5 μM
  inhibition at 5 µM: 52%
[5]; discussion statement
  concentration inhibiting Akt2 kinase activity in vitro: ≥ 1 µM
[6]
  histone H3 phosphorylation on Ser10 in cancer cells: suppressed
[7]; 1 μM or less
  cytotoxic effects on A549 lung cancer cells: no obvious cytotoxic effects
[7]; 5 μM, 48 hours
  toxicity toward A549 cancer cells: weak toxicity
[7]; [15]
  toxicity on A549 lung cancer cells: substantial toxicity
[8]; 0.05 μM
  inhibition of growth in soft agar: no inhibition
[8]; Homo sapiens, HCT-116, 0.1 μM, read-out: inhibition of growth in soft agar
  inhibition at 0.1 µM: 55%
[9]; H1650, 0.5 μM
  decrease of anchorage-independent growth compared to control: more than 80%
[9]; H1650, 1 μM
  decrease of anchorage-independent growth compared to control: > 90%
[10]; A549, 0.5 μM
  decrease of anchorage-independent growth compared to control: more than 80%
[10]; A549, 1 μM
  decrease of anchorage-independent growth compared to control: > 90%
[11]; H520, 0.5 μM
  decrease of anchorage-independent growth compared to control: more than 80%
[11]; H520, 1 μM
  decrease of anchorage-independent growth compared to control: > 90%
[12]
  induction of polyploidy cells: caused the induction of polyploidy cells
[13]
  inhibition at 0.5 µM: < 40%
[14]; HCT-116, 0.05 μM
  inhibition at 0.05 µM: 40%
[14]; HCT-116, 0.1 μM
  inhibition at 0.1 µM: > 95%
